According to patent US20130129840A1, “COMBINATION THERAPY USING A RUTHENIUM COMPLEX” (Niiki Pharma Inc., priority 2010, published 2013):

Tests used:
cancer = settings: cited from earlier work
colon cancer cells = settings: preclinical studies, Kapitza et al. 2005; cited from earlier work
[1] = system: Hep3B liver carcinoma xenograft; experiment: Hep3B liver carcinoma xenograft assay, survival; assay type: in vivo, CB17 SCID mice; settings: SCID mice, test drug 30 mg/kg i.v. day 1 and 8, sorafenib 25 mg/kg p.o. days 1-5 and 8-12, control 33 days
Method: Xenograft Assay: CB17 severe combined immunodeficient (SCID) female mice were used for all in vivo studies. The mice received food and water ad libitum. For tumor application, logarithmically growing Hep3B cells in cell culture were collected by trypsinization and washed once in serum-free culture medium. The cells were then pelleted and resuspended in culture medium to a final cell count of 2×10^7/ml. 50 μl of the cell suspension was injected s.c. in the right flank of each mouse. Treatment started when all animals in the study had established tumors of a size of about 3×3 mm.
Sorafenib (LC Laboratories, Woburn, Mass., USA) was dissolved in DMSO (50 mg/ml), further diluted in Cremophor EL/95% ethanol (50:50; Sigma), which was followed by a 1:4 dilution in water. 100 μl sorafenib was administered p.o. once daily at 5 consecutive days for two weeks at a dose of 25 mg/kg body weight (days 1-5 and days 8-12).
Tumor size was calculated using the equation (l×w^2)/2, where l and w refer to the larger and smaller dimensions, respectively, of the tumor. 4 mice were used in each group for each data point.

SMILES | anti-cancer activities in a phase I clinical trial (cancer) | inducing apoptosis in colon cancer cells (colon cancer cells) | increase in life span / mean survival vs. control [1] [fold] | mean survival [1] [days]
[Cl-].[Cl-].[Cl-].[Cl-].[Ru+3].c1ccc2[nH][nH+]cc2c1.c1ccc2[nH]ncc2c1.c1ccc2[nH]ncc2c1 [KP1019, indazolium trans-[tetrachlorobis(1H-indazole)ruthenate (III)]] | some anti-cancer activities | effective in inducing apoptosis |  | 
[Cl][Ru-]([Cl])([Cl])[Cl].[Na+].c1ccc2[nH]ncc2c1.c1ccc2[nH]ncc2c1 [Test drug] |  | effective in inducing apoptosis | 2.4 | 80
CNC(=O)c1cc(Oc2ccc(NC(=O)Nc3ccc(Cl)c(C(F)(F)F)c3)cc2)ccn1 [sorafenib, reference compound] |  |  | 1.9 | 60
